Experimental data taken from patent US5278324A, “Water soluble derivatives of taxol” (Virginia Tech Intellectual Properties, Inc., priority 1991, dated 1994).
Counter-ions that a name gives are not always drawn.

Columns and labels:
[1] = cited from earlier work
[2] = cited from earlier work; remark: listed apart in the source
tubulin = settings: cited from earlier work
[3] = tested on: drug-refractory ovarian cancer; settings: McGuire et al. 1989; cited from earlier work
[4] = cited from earlier work; remark: listed apart in the source
[5] = tested on: acute leukemia and melanoma; settings: preliminary studies; cited from earlier work
[6] = Water solubility by partition between 1-octanol and water, relative to taxol; settings: for times more water soluble than taxol / solubilities greater than taxol: 1-octanol/water partition; for solubilities greater than taxol: Table 9 discussion; for water solubility (in words): versus taxol or the other derivatives
Protocol: Water solubilities for all compounds were determined by the partition coefficient between 1-octanol and water. Octanol saturated with distilled water and distilled water saturated with octanol were used for the solubility determinations.
Taxol's water solubility was determined by dissolving 1.6 mg of taxol in 10 ml of distilled water saturated with 1-octanol in a 60 ml separatory funnel, and 10 ml of 1-octanol saturated with distilled water was then added. The funnel was shaken, and allowed to stand for about 30 minutes until the organic and aqueous phases separated. UV absorption measurements at 228 nm were made of the aqueous layer and/or octanol layer, with the octanol layer being diluted 5 times before measurement.

several tumor systems = settings: background statement; cited from earlier work
[7] = Biological testing of 2'-[(3-sulfo-1-oxopropyl)oxy]taxol sodium salt
P-388 = settings: compared with taxol; cited from earlier work
[8] = Magri and Kingston 1988; cited from earlier work
cell culture = settings: Magri and Kingston 1988; cited from earlier work
[9] = in vivo conditions; cited from earlier work
[10] = Deutsch et al. 1989; cited from earlier work
[11] = Aqueous solubility (statements in words); type: physicochemical; settings: versus the neutral form
[12] = Stability of 2'-γ-aminobutyryltaxol formate (proton NMR and TLC); type: physicochemical; settings: after a few hours
Excerpt: 2'-γ-aminobutyryltaxol formate was synthesized by coupling taxol with N-carbobenzyloxy (CBZ) -γ-aminobutyric acid followed by deprotection of the amine. Taxol was reacted with N-CBZ-γ- aminobutyric acid using dicyclohexyl-carbodiimide (DCC) as the coupling agent. The resulting 2'-NCBZ-γ-aminobutyryl taxol was produced in 75% yield after purification via preparative TLC with silica gel and 3/2 hexane/ethyl acetate. […] Deprotection of the 2'-N-CBZ-γ-aminobutyryltaxol was effected using 5% Pd/C as a catalyst and formic acid as a hydrogen source. […] NMR confirmed the synthesis of the 2'-γ-aminobutyryl taxol formate. […] This instability precluded further consideration of 2'-γ-amino-butyryltaxol formate as a prodrug form of taxol.

[13] = Magri and Kingston; cited from earlier work

SMILES: CC(=O)O[C@H]1C(=O)[C@@]2(C)[C@H]([C@H](OC(=O)c3ccccc3)[C@]3(O)C[C@H](OC(=O)[C@H](O)[C@@H](NC(=O)c4ccccc4)c4ccccc4)C(C)=C1C3(C)C)[C@]1(OC(C)=O)CO[C@@H]1C[C@@H]2O [Taxol, taxol]
- toxic effects in phase 1 clinical trials [1]: did not show excessive toxic effects
- water solubility of taxol ([2]; background statement): low water solubility
- effect on microtubule formation (tubulin): promotes formation of the microtubules
- effect on depolymerization of tubulin (tubulin; mitotic spindle microtubules): prevents depolymerization of the tubulin
- activity against drug-refractory ovarian cancer [3]: active agent against drug-refractory ovarian cancer
- stability in base ([4]; base): readily hydrolyzed in base
- activity in acute leukemia and melanoma [5]: marginal activity in acute leukemia and melanoma
- Relative Solubility (water solubility relative to taxol) [6]: 1
- activity in tumor systems (several tumor systems): has shown activity in several tumor systems

SMILES: CC(=O)O[C@H]1C(=O)[C@@]2(C)[C@H]([C@H](OC(=O)c3ccccc3)[C@]3(O)C[C@H](OC(=O)[C@H](OC(=O)CCC(=O)NCCCS(=O)(=O)O)[C@@H](NC(=O)c4ccccc4)c4ccccc4)C(C)=C1C3(C)C)[C@]1(OC(C)=O)CO[C@@H]1C[C@@H]2O [2'-{[4-((3-sulfopropyl)-amino)-1,4-dioxobutyl]oxy}taxol sodium salt]
- times more water soluble than taxol [6]: 118 times
- solubilities greater than taxol [6]: more than 100 times

SMILES: CC(=O)O[C@H]1C(=O)[C@@]2(C)[C@H]([C@H](OC(=O)c3ccccc3)[C@]3(O)C[C@H](OC(=O)[C@H](OC(=O)CCS(=O)(=O)O)[C@@H](NC(=O)c4ccccc4)c4ccccc4)C(C)=C1C3(C)C)[C@]1(OC(C)=O)CO[C@@H]1C[C@@H]2O [2'-[(3-sulfo-1-oxopropyl)oxy]taxol sodium salt]
- times more water soluble than taxol [6]: 210 times
- water solubility (in words) ([6]; listed as 2'-[(3-sulfo-l- oxopropyl)oxy]taxol sodium salt, sodium salt): improved water solubility
- water solubility (in words) ([6]; listed as 2'-acryloyltaxol derivative, sodium salt): highest water solubility
- bioactivity [7]: bioactive

SMILES: CC(=O)O[C@H]1C(=O)[C@@]2(C)[C@H]([C@H](OC(=O)c3ccccc3)[C@]3(O)C[C@H](OC(=O)[C@H](OC(=O)CCC(=O)O)[C@@H](NC(=O)c4ccccc4)c4ccccc4)C(C)=C1C3(C)C)[C@]1(OC(C)=O)CO[C@@H]1C[C@@H]2O [2'-succinyltaxol]
- P-388 in vivo activity (P-388): much diminished P-388 in vivo activity as compared with taxol

SMILES: CC(=O)O[C@H]1C(=O)[C@@]2(C)[C@H]([C@H](OC(=O)c3ccccc3)[C@]3(O)C[C@H](OC(=O)[C@H](O[Si](C)(C)C(C)(C)C)[C@@H](NC(=O)c4ccccc4)c4ccccc4)C(C)=C1C3(C)C)[C@]1(OC(C)=O)CO[C@@H]1C[C@@H]2O [2'-(t-butyldimethylsilyl) taxol]
- biological activity [8]: essentially inactive

SMILES: CC(=O)O[C@H]1C(=O)[C@]2(C)[C@@H](OC(C)=O)C[C@H]3OC[C@@]3(OC(C)=O)[C@H]2[C@H](OC(=O)c2ccccc2)[C@]2(O)C[C@H](OC(=O)[C@H](OC(C)=O)[C@@H](NC(=O)c3ccccc3)c3ccccc3)C(C)=C1C2(C)C [2',7-diacetyltaxol]
- activity in a cell culture bioassay (cell culture): both showed activity in a cell culture bioassay
- hydrolysis of acyl substituents at the 2' position [9]: readily hydrolyzed under in vivo conditions

SMILES: CC(=O)O[C@H]1C(=O)[C@@]2(C)[C@H]([C@H](OC(=O)c3ccccc3)[C@]3(O)C[C@H](OC(=O)[C@H](OC(=O)CCCC(=O)NCCCN(C)C)[C@@H](NC(=O)c4ccccc4)c4ccccc4)C(C)=C1C3(C)C)[C@]1(OC(C)=O)CO[C@@H]1C[C@@H]2O
- antitumor activity [10]: good solubility and bioactivity
- solubility ([2]; Deutsch et al. 1989): good solubility

SMILES: CC(=O)O[C@H]1C(=O)[C@@]2(C)[C@H]([C@H](OC(=O)c3ccccc3)[C@]3(O)C[C@H](OC(=O)[C@H](OC(C)=O)[C@@H](NC(=O)c4ccccc4)c4ccccc4)C(C)=C1C3(C)C)[C@]1(OC(C)=O)CO[C@@H]1C[C@@H]2O [2'-acetyltaxol]
- activity in a cell culture bioassay (cell culture): both showed activity in a cell culture bioassay
- hydrolysis of acyl substituents at the 2' position [9]: readily hydrolyzed under in vivo conditions

SMILES: CC(=O)O[C@H]1C(=O)[C@@]2(C)[C@H]([C@H](OC(=O)c3ccccc3)[C@]3(O)C[C@H](OC(=O)[C@H](OC(=O)CCC(=O)NCCS(=O)(=O)O)[C@@H](NC(=O)c4ccccc4)c4ccccc4)C(C)=C1C3(C)C)[C@]1(OC(C)=O)CO[C@@H]1C[C@@H]2O [2'-{[4-((2-sulfoethyl)amino)-1,4-dioxo-butyl]oxy}taxol sodium salt]
- times more water soluble than taxol [6]: 191 times
- solubilities greater than taxol [6]: more than 100 times
- water solubility (in words) [6]: much greater water solubility than the 3-amino-1-sulfopropionic acid derivative of 2'-succinyltaxol

SMILES: CC(=O)O[C@H]1C(=O)[C@@]2(C)[C@H]([C@H](OC(=O)c3ccccc3)[C@]3(O)C[C@H](OC(=O)[C@H](OC(=O)CCCN)[C@@H](NC(=O)c4ccccc4)c4ccccc4)C(C)=C1C3(C)C)[C@]1(OC(C)=O)CO[C@@H]1C[C@@H]2O [2'-γ-aminobutyryltaxol formate, 2'-γ-amino-butyryltaxol formate]
- water solubility of formate salt [11]: more water soluble than the neutral form
- stability (proton NMR and TLC) [12]: decomposed back to taxol
- stability in methanol solution ([12]; methanol solution): unstable in methanol solution and decomposed back to taxol after a few hours

SMILES: CC[C@]1(O)C[C@@H]2CN(CCc3c([nH]c4ccccc34)[C@@](C(=O)OC)(c3cc4c(cc3OC)N(C)[C@H]3[C@@](O)(C(=O)OC)[C@H](OC(C)=O)[C@]5(CC)C=CCN6CC[C@]43[C@@H]65)C2)C1 [vinblastine]
- effect on microtubule formation (tubulin): prevent microtubule formation

SMILES: CC(=O)O[C@H]1C(=O)[C@@]2(C)[C@H]([C@H](OC(=O)c3ccccc3)[C@]3(O)C[C@H](OC(=O)[C@H](OC(=O)CCN)[C@@H](NC(=O)c4ccccc4)c4ccccc4)C(C)=C1C3(C)C)[C@]1(OC(C)=O)CO[C@@H]1C[C@@H]2O [2'-(β-alanyl)taxol]
- activity in vivo and in vitro [13]: active in vivo and in vitro
- stability ([4]; Magri and Kingston): unstable
